Experimental findings from paper PMC6784244 (Toxins, 2019) are described below.

Each structure is given as a SMILES string.

The conditions of this assay: pH 7.4.
As for `CC(C)[C@H]1OC(=O)[C@H](Cc2ccccc2)N(C)C(=O)[C@@H](C(C)C)OC(=O)[C@H](Cc2ccccc2)N(C)C(=O)[C@@H](C(C)C)OC(=O)[C@H](Cc2ccccc2)N(C)C1=O` [BEA, Beauvericin], the “critical pressure of insertion, Cardiolipin” value (shortened to “critical pressure of insertion”) is recorded as “--”.

On to `CC[C@H](C)[C@H]1C(=O)O[C@H](C(C)C)C(=O)N(C)[C@@H]([C@@H](C)CC)C(=O)O[C@H](C(C)C)C(=O)N(C)[C@@H](C(C)C)C(=O)O[C@H](C(C)C)C(=O)N1C` [ENN A1], for which the “critical pressure of insertion” value amounted to 48.57 mN/m. Regarding `CC[C@H](C)[C@H]1C(=O)O[C@H](C(C)C)C(=O)N(C)[C@@H]([C@@H](C)CC)C(=O)O[C@H](C(C)C)C(=O)N(C)[C@@H]([C@@H](C)CC)C(=O)O[C@H](C(C)C)C(=O)N1C` [ENN A], the “critical pressure of insertion” value turned out to be 49.72 mN/m.

For `CC[C@H](C)[C@H]1C(=O)O[C@H](C(C)C)C(=O)N(C)[C@@H](C(C)C)C(=O)O[C@H](C(C)C)C(=O)N(C)[C@@H](C(C)C)C(=O)O[C@H](C(C)C)C(=O)N1C` [ENN B1], the “critical pressure of insertion” value stood at 43.51 mN/m. Regarding `CC(C)[C@H]1C(=O)O[C@H](C(C)C)C(=O)N(C)[C@@H](C(C)C)C(=O)O[C@H](C(C)C)C(=O)N(C)[C@@H](C(C)C)C(=O)O[C@H](C(C)C)C(=O)N1C` [ENN B], the “critical pressure of insertion” value stood at 33.29 mN/m.
